Data as given in patent publication EP0561850B1, “7-SUBSTITUTED-6-FLUORO-1,4-DIHYDRO-4-OXO-QUINOLINE-3-CARBOXYLIC ACID COMPOUNDS USEFUL AS ANTIBACTERIAL AGENTS” (priority 1990, dated 1992).
In brackets after ≈: the same amount, converted by molar mass.

What was measured:
Assay in all cases: Microbroth dilution (MHB) method, NCCLS M7-A2
[1] = test system: Providencia rettgeri S-121; type: cell-based; conditions: Providencia rettgeri, S121, Pr S-121, inoculum 5 x 10^5 cfu/ml, 35 °C/18 hr, read-out: MIC
Protocol: (§1) The test organisms were obtained from ATCC and clinical laboratories. The 96-well microtitre plates containing […] of serially diluted test compounds in Mueller Hinton Broth (MHB) (conc. range 64-0.03 µg/ml) were inoculated with […] of bacterial suspension in MHB so that an inoculum size of 5 x 10^5 cfu/ml was achieved.
(§2) EC. (S- 63): Eschericia coli Ecl. (S- 130): Enterobacter cloacae Pa. (S- 67): Pseudomonas aeruginosa Kp. (S- 80): Klebsiella pneumoniae Pr.
(§3) Microbroth Dilution (MHB) method; Inoculum, 5 x 10^5 cfu/ml; Incubation 35 °C/18 hr

[2] = test system: Pseudomonas aeruginosa S-67; type: cell-based; conditions: Pseudomonas aeruginosa, S67; Pa S-67; MHB; inoculum 5 x 10^5 cfu/ml; 35 °C/18 hr; read-out: MIC
Protocol: as §1, §2, §3

[3] = test system: Staphylococcus aureus S-127; type: cell-based; conditions: Staphylococcus aureus, S127, Sa S-127, inoculum 5 x 10^5 cfu/ml, 35 °C/18 hr, read-out: MIC
Protocol: as §1, §2, §3

[4] = test system: Klebsiella pneumoniae S-80; type: cell-based; conditions: Klebsiella pneumoniae, S80; Kp S-80; MHB; inoculum 5 x 10^5 cfu/ml; 35 °C/18 hr; read-out: MIC
Protocol: as §1, §2, §3

[5] = test system: Enterobacter cloacae S-130; type: cell-based; conditions: Enterobacter cloacae, S130, Ecl S-130, inoculum 5 x 10^5 cfu/ml, 35 °C/18 hr, read-out: MIC
Protocol: as §1, §2, §3

Eschericia coli S-63 = type: cell-based; conditions: Ec S-63, inoculum 5 x 10^5 cfu/ml, 35 °C/18 hr, read-out: MIC
Protocol: as §1, §2, §3

Sa 127M = type: cell-based, Staphylococcus aureus; conditions: Staphylococcus aureus, inoculum 5 x 10^5 cfu/ml, 35 °C/18 hr, read-out: MIC
Protocol: as §1, §2, §3

Row | Structure (SMILES) | MIC [1] | MIC [2] | MIC [3] | MIC [4] | MIC [5] | MIC (Eschericia coli S-63) | MIC (Sa 127M)
1 | O=C(O)c1cn(C2CC2)c2c(F)c(N3CCC(n4cncn4)C3)c(F)cc2c1=O (centres unmarked) [Example 29, 1-Cyclopropyl-6,8-difluoro-7-[3-(1,2,4-triazol-1-yl)pyrrolidin-1-yl]-1,4-dihydro-4-oxo-quinoline-3-carboxylic acid] | 0.25 mg/L (≈ 0.623 µM) | 4 mg/L (≈ 9.97 µM) | 0.03 mg/L (≈ 0.0747 µM) | 0.5 mg/L (≈ 1.25 µM) | 0.25 mg/L (≈ 0.623 µM) | 0.12 mg/L (≈ 0.299 µM) | 0.06 mg/L (≈ 0.149 µM)
2 | COc1c(N2CC[C@H](n3ccnn3)C2)c(F)cc2c(=O)c(C(=O)O)cn(C3CC3)c12 [Example 31, 1-Cyclopropyl-6-fluoro-7-[3S-(1,2,3-triazol-1-yl)pyrrolidin-1-yl]-8-methoxy-1,4-dihydro-4-oxo-quinoline-3-carboxylic acid] | 0.5 mg/L (≈ 1.21 µM) | 2 mg/L (≈ 4.84 µM) | ≤ 0.015 mg/L | 0.25 mg/L (≈ 0.605 µM) | 0.5 mg/L (≈ 1.21 µM) | 0.12 mg/L (≈ 0.29 µM) | ≤ 0.015 mg/L
3 | COc1c(N2CCC(n3ccnn3)C2)c(F)cc2c(=O)c(C(=O)O)cn(C3CC3)c12 (centres unmarked) [Example 32, 1-Cyclopropyl-6-fluoro-7-[3-(1,2,3-triazol-1-yl)pyrrolidin-1-yl]-8-methoxy-1,4-dihydro-4-oxo-quinoline-3-carboxylic acid] | 0.12 mg/L (≈ 0.29 µM) | 4 mg/L (≈ 9.68 µM) | ≤ 0.03 mg/L | 0.25 mg/L (≈ 0.605 µM) | 0.5 mg/L (≈ 1.21 µM) | 0.12 mg/L (≈ 0.29 µM) | ≤ 0.03 mg/L
4 | COc1c(N2CCC(n3cc(C)nn3)C2)c(F)cc2c(=O)c(C(=O)O)cn(C3CC3)c12 (centres unmarked) [Example 33] | 2 mg/L (≈ 4.68 µM) | 8 mg/L (≈ 18.7 µM) | ≤ 0.015 mg/L | 1 mg/L (≈ 2.34 µM) | 1 mg/L (≈ 2.34 µM) | 0.12 mg/L (≈ 0.281 µM) | ≤ 0.015 mg/L
5 | COc1c(N2CCC(n3cncn3)C2)c(F)cc2c(=O)c(C(=O)O)cn(C3CC3)c12 (centres unmarked) [Example 34, 1-Cyclopropyl-6-fluoro-7-[3-(1,2,4-triazol-1-yl)pyrrolidin-1-yl]-8-methoxy-1,4-dihydro-4-oxo-quinoline-3-carboxylic acid] | 0.5 mg/L (≈ 1.21 µM) | 8 mg/L (≈ 19.4 µM) | 0.5 mg/L (≈ 1.21 µM) | 0.5 mg/L (≈ 1.21 µM) | 0.5 mg/L (≈ 1.21 µM) | 0.5 mg/L (≈ 1.21 µM) | –
6 | Nc1cn(C2CCN(c3c(F)c(N)c4c(=O)c(C(=O)O)cn(C5CC5)c4c3F)C2)nn1 (centres unmarked) [Example 41, 5-Amino-1-cyclopropyl-6,8-difluoro-7-(3-(4-amino-1,2,3-triazol-1-yl)-pyrrolidin-1-yl)-1,4-dihydro-4-oxo-quinoline-3-carboxylic acid] | – | – | 0.03 mg/L (≈ 0.0695 µM) | – | – | 0.12 mg/L (≈ 0.278 µM) | –
7 | Nc1cn(C2CCN(c3c(F)cc4c(=O)c(C(=O)O)cn(C5CC5)c4c3F)C2)nn1 (centres unmarked) [Example 42, 1-Cyclopropyl-6,8-difluoro-7-(3-(4-amino-1,2,3-triazol-1-yl)-pyrrolidin-1-yl)-1,4-dihydro-4-oxo-quinoline-3-carboxylic acid] | 1 mg/L (≈ 2.4 µM) | 4 mg/L (≈ 9.61 µM) | 0.25 mg/L (≈ 0.6 µM) | 1 mg/L (≈ 2.4 µM) | 1 mg/L (≈ 2.4 µM) | 0.5 mg/L (≈ 1.2 µM) | 1 mg/L (≈ 2.4 µM)
8 | NCc1cnnn1C1CCN(c2c(F)cc3c(=O)c(C(=O)O)cn(C4CC4)c3c2F)C1 (centres unmarked) [Example 44] | 1 mg/L (≈ 2.32 µM) | 8 mg/L (≈ 18.6 µM) | 25 mg/L (≈ 58.1 µM) | 1 mg/L (≈ 2.32 µM) | 0.25 mg/L (≈ 0.581 µM) | 0.5 mg/L (≈ 1.16 µM) | –
9 | O=C(O)c1cn(C2CCN(c3c(F)cc4c(=O)c(C(=O)O)cn(C5CC5)c4c3F)C2)nn1 (centres unmarked) [Example 45, 1-cyclopropyl-6,8-difluoro-7-[3-(4-carboxyl-1,2,3-triazol-1-yl)pyrrolidin-1-yl]-1,4-dihydro-4-oxo-quinoline-3-carboxylic acid] | – | – | – | – | – | 0.25 mg/L (≈ 0.561 µM) | 1 mg/L (≈ 2.25 µM)
10 | O=C(O)c1cn(C2CC2)c2c(F)c(N3CCC(n4ncnn4)C3)c(F)cc2c1=O (centres unmarked) [Example 51, 1-Cyclopropyl-6,8-difluoro-7-[3-(1,2,3,4-tetrazol-2-yl)pyrrolidin-1-yl]-1,4-dihydro-4-oxo-quinoline-3-carboxylic acid] | 0.12 mg/L (≈ 0.298 µM) | 2 mg/L (≈ 4.97 µM) | ≤ 0.03 mg/L | 0.12 mg/L (≈ 0.298 µM) | – | 0.06 mg/L (≈ 0.149 µM) | ≤ 0.03 mg/L
11 | O=C(O)c1cn(C2CC2)c2c(F)c(N3CCC(n4cnnn4)C3)c(F)cc2c1=O (centres unmarked) [Example 52, 1-Cyclopropyl-6,8-fluoro-7-[3-(1,2,3,4-tetrazol-1-yl)pyrrolidin-1-yl]-1,4-dihydro-4-oxo-quinoline-3-carboxylic acid] | 0.12 mg/L (≈ 0.298 µM) | 2 mg/L (≈ 4.97 µM) | 0.06 mg/L (≈ 0.149 µM) | 0.25 mg/L (≈ 0.621 µM) | – | 0.06 mg/L (≈ 0.149 µM) | –
